These results are taken from patent US12295970B2, “Imidazoquinoline compounds and prodrugs thereof” (UNIVERSITY OF KANSAS, priority 2019, dated 2025).

For one data set, the target named is T1, human TLR7 (hTLR7) (Homo sapiens, UniProt Q9NYK1).
T1 construct: host or cells: HEK-293 (HEK-Blue hTLR7)
T1 sequence (Q9NYK1 27-1049): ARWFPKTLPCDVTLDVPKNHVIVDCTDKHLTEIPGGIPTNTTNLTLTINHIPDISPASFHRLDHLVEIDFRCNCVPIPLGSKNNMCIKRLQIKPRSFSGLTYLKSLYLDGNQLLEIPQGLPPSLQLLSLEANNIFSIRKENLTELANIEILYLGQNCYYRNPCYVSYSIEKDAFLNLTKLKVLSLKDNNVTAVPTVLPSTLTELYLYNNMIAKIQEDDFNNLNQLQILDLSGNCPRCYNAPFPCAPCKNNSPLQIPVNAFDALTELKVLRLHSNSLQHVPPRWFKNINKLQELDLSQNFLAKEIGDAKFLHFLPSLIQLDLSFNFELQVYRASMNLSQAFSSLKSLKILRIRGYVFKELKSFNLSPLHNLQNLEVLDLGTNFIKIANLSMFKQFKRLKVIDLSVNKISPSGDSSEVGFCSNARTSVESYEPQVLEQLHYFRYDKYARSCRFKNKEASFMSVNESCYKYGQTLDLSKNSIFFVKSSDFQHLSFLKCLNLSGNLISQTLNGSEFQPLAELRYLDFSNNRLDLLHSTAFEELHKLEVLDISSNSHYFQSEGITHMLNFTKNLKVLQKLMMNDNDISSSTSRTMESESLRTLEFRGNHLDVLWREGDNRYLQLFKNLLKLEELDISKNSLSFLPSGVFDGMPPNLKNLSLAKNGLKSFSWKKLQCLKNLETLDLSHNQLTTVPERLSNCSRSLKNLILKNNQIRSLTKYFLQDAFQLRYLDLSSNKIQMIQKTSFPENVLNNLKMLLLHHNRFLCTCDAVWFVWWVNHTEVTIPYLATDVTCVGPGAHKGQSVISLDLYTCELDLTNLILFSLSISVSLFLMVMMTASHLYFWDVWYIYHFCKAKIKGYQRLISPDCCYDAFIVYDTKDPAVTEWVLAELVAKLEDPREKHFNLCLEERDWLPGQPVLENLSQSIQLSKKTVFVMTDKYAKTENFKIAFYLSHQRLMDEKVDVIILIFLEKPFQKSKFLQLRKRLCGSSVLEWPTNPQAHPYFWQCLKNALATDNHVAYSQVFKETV
The experiment in a line: In vitro TLR7 activity assay (HEK-Blue hTLR7, QUANTI-Blue, Example 3). It counts as cell-based. Particulars: 16 h incubation; Null 1-k subtracted. The method, then:
TLR agonist activity was measured in a dose-response study using reporter cell lines expressing the human TLR7 (hTLR7). […] The hTLR7 activity of R848-Toco, the formulation and its components were assessed using HEK-293 cells co-transfected with the hTLR7 gene and an inducible SEAP reporter gene along with the corresponding null control line (HEK-Blue™ hTLR7 and Null-1k cells, Invivogen). Cells were maintained in DMEM media with selective antibiotics according to the manufacturer protocol.^26 HEK-Blue™ cells were seeded into 96 well plates at a density of 220,000 cells/mL with 180 μL/well of culture medium. Stock solutions in DMSO were first serially diluted to seven concentrations (DMSO solutions further diluted into H2O). Each well was stimulated with 20 μL of agonists or agonist-free controls (equivalent concentration of HA-Toco, D-α-Tocopherol succinate, PBS or […] DMSO) at the determined final concentrations in 5 replicates. After 16 h of incubation at 37° C. in a 5% CO2 atmosphere, 20 μL of the supernatant from each well was sampled and spiked into 180 μL of QUANTI-Blue™ solution followed by incubation for 1 h at 37° C. Relative hTLR7 activity was then analyzed by UV-Vis at 637 nm using a microplate UV reader (SpectraMAX GeminiXS, Molecular Devices, San Jose, CA, USA). For each compound and concentration, a corresponding sample was applied to the HEK-Blue™ Null-1k cell line. The TLR7 agonist activity was determined after averaging across hTLR7 replications and subtracting the averaged Null response.
Activation levels were calculated as the difference between the average readings of the hTLR7 cell line and the Null 1-k cell line, to account for non-hTLR7 related induction of NF-κB. […] Therefore, this study confirmed that R848-Toco, formulated with HA-Toco as an emulsion, maintained its TLR agonist activity. […]

A short description of the next data set: Hydrolysis of R848-Toco. Format: physicochemical. The method, then: For hydrolysis, R848-Toco (0.1 mg) was dissolved in 1 mL of DMSO, and the solution was added into 9 mL of hydrolysis media (PBS or 0.5% (w/v) polysorbate 80/PBS). The solution was then rapidly mixed and filtered using a syringe filter (0.22 μm×13 mm, nylon). The filtrate was then incubated at 37° C. under agitation (250 rpm). At predetermined time points, 50 μL of the solution was sampled and analyzed immediately by HPLC.

Data set [1] can be described thus: In vitro release kinetics (dialysis method). It counts as physicochemical. The method, then:
Solutions (1 mL) of free R848 in DMSO, R848/HA-Toco in water, R848-Toco in DMSO, and R848-Toco/HA-Toco in water, with a concentration of 1 mg/mL on R848 basis were dialyzed using SnakeSkin® dialysis tubing (MWCO […]) against 30 mL of phosphate buffered saline release medium (PBS, 10 mM sodium phosphate, 137 mM NaCl, pH 7.4) with 0.5% (w/v) polysorbate 80 at 37° C. At predetermined time points, 1 mL aliquots of release medium were sampled and replaced with an equal volume of fresh medium. The samples were kept frozen (−20° C.) until HPLC analysis.
Results: The in vitro release profiles of R848 and R848-Toco from the HA-Toco were studied using a dialysis method. […] The release of parent R848 formulated with HA-Toco was tested in PBS media, with free R848 dissolved in DMSO as a control. Similar release kinetics were observed whether R848 was formulated with HA-Toco or without ([…]), and in both conditions nearly 100% of the agonist was released over 24 h (FIG. 4A).

The nature of data set [2]: Solubility in water (in words). Format: physicochemical.
Another data set deals with canine PBMCs. The experiment in a line: In vitro cytokine secretion assay in canine PBMCs (Example 3). It counts as cell-based. Particulars: 15 hours, ELISA. An excerpt: As a TLR7/8 agonist, R848 binds to endosomal TLR7 and 8 receptors located on antigen presenting cells (APCs). The activation of APCs produces pro-inflammatory cytokines including TNF-α, type I IFN and IL-12. These cytokines, together with stimulated APCs that take up tumor antigens, enhance the activation of anti-tumor Th-1 immune responses that involve both CD4^+ T helper cells and CD8^+ cytotoxic T cells.^16 To evaluate the Th-1 associated cytokine production in vitro, isolated canine PBMCs were treated with R848, formulated or unformulated R848-Toco, and the secretion of TNF-α and IL-12 were measured by ELISA as markers of generalized inflammatory response. Canines were chosen as a model over mice because of the greater genetic similarity to humans and more similar immune systems.^46 Peripheral blood from healthy canine donors of 7-10 years age (similar to the age of typical canines with cancer^14) was obtained with appropriate informed consent of the owner. Blood (8 mL per tube) was drawn via sterile venipuncture into a BD Vacutainer cell preparation tube containing sodium heparin (BD Biosciences). PBMCs were isolated within one hour following procurement by density gradient centrifugation according to the manufacturer protocol and resuspended to 3×10^6 cells/mL in sterile RPMI 1640 medium with L-glutamine (Gibco) supplemented with 100 IU/mL penicillin, 100 μg/mL streptomycin (Corning) and 10% (v/v) heat-inactivated Fetalgro (RMBIO). Corning 3917, 96-well tissue culture treated plates were seeded with the PBMC suspension (180 μL/well), 20 μL of the serially diluted R848 samples were added in triplicate and HA-Toco vehicle in duplicate to yield the desired concentrations in a 1% (v/v) DMSO cell suspension. […] Sample cytokine concentrations were determined by interpolation of a four-parameter logistic curve of the recombinant standards using GraphPad Prism 6. […] Cytokine secretion levels were measured by ELISA (Duoset, R&D Systems, Minneapolis, MN, USA) according to the manufacturer protocol.
Background: In an ELISA, binding on a coated surface is turned into a signal by an enzyme label.

Another data set deals with mast cell tumors. Particulars: 86 canine patients (7 complete response and 25 partial response); cited from earlier work.

SMILES strings stand for the structures.

Regarding `CCOCc1nc2c(N)nc3ccccc3c2n1CC(C)(C)OC(=O)CCC(=O)Oc1c(C)c(C)c2c(c1C)CC[C@@](C)(CCC[C@H](C)CCC[C@H](C)CCCC(C)C)O2` [Compound R848-Toco], on human TLR7 (hTLR7), the “hTLR7 activation (NF-κB, in words)” value is “much less active”. In addition, in “Hydrolysis of R848-Toco” (hydrolysis sample at 8 h), the “hydrolyzed products observed by HPLC” value is reported as “R848, which was the only observed hydrolyzed product”. In addition, the “R848-Toco hydrolyzed to R848” value in “Hydrolysis of R848-Toco” (initial 8 h, 37° C.) was found to be 72%. In addition, in data set [1] (0.5% w/v polysorbate 80 solution of PBS), the “released over the first 24 h” value is given as 76%. Besides, in data set [1] (PBS, pH 7.4), the “release profile (in words)” value is reported as “burst release within the first half hour”. Besides, the solubility in water entry in data set [2] is on record as “poorly soluble in water”. The IL-12 levels result in the data set with canine PBMCs was “lower expression”.

In the case of `Cc1c(C)c2c(c(C)c1OC(=O)CCC(=O)O)CC[C@@](C)(CCC[C@H](C)CCC[C@H](C)CCCC(C)C)O2` [Toco-succinate, (+)-α-tocopherol succinate], on human TLR7 (hTLR7), the “hTLR7 activation (NF-κB, in words)” value is given as “did not induce any significant activation”.

Take `Cc1[nH]c(/C=C2\C(=O)Nc3ccc(F)cc32)c(C)c1C(=O)NCCN1CCCC1.O=P(O)(O)O` [toceranib phosphate]: the response rate in the data set with mast cell tumors is listed as 37.2%.
